Measurements from patent publication US20120295838A1, “Selective poly-substituted glycine antibiotics and related compositions” (priority 2008, published 2012).
Numbered stars: 1 amine (or outer) side, 2 acyl side, 3 side chain; on linkers, the order of the positions; unused ones are H or OH. Square brackets hold non-standard residues; d marks the D form. Peptide text beside a SMILES is read from it. X1 = CC(C)[C@H](C)N(CC(=O)[*:2])[*:1]; Nspe = C[C@H](NCC(=O)O)c1ccccc1; Nlys = NCCCCNCC(=O)O

Key:
[1] = test system: human erythrocytes; assay: Hemolysis assay; type: cell-based
Procedure: (§1) Hemolysis assays. Erythrocytes were isolated from freshly drawn, heparanized human blood and resuspended to 20 vol % in PBS (pH 7.4). In a 96-well microtiter plate, 100 μL erythrocyte suspension was added to 100 uL peptoid solution in PBS (prepared by 1:2 serial dilutions), or 100 μL PBS in the case of negative controls. 100% hemolysis wells contained 100 μL, blood cell suspension with 100 μL 0.2 vol % Triton X-100. The plate was incubated for 1 h at 37° C., then each well was diluted with 1504 PBS. The plate was then centrifuged at 1200 g for 15 min, 100 μL of the supernatant from each well transferred to a fresh microtiter plate, and A350 measured.
Hemolysis assays. Erythrocytes were isolated from freshly drawn, heparanized human blood and resuspended in PBS (pH 7.4) to make a 20% volume suspension. Peptoid solutions were prepared by serial dilution (2:1) in a 96-well microtiter plate. For test wells, 100 μLL of erythrocyte suspension was added to 100 μL of peptoid solution in PBS; PBS without peptoid was used as the negative control and 0.2 vol % Triton X-100 as the positive control that indicates 100% hemolysis. After 1 hour incubation at 37° C., each well was diluted with 150 μL PBS. Plates were then centrifuged at 1,200×g for 15 minutes to pellet the cells. 30 μL of the supernatant from each well were transferred to the corresponding well of a second 96-well plate that contains 70 μL PBS.
as §1, with “assays for Compositions.” for “assays.”, “100” for “100 uL”, “μL” for “μL,”, “150 μL” for “1504”, “1200g” for “1200 g”

[2] = test system: E. coli ATCC 35218; type: cell-based; conditions: ATCC 35218
Procedure: (§2) Whereas the preceding generation of molecules was designed to elucidate structure function relationships of specific molecular parameters (chirality, length, hydrophobicity, etc.), another generation compounds were designed explicitly to explore effects on selectivity. Antimicrobial activity of these compounds was tested against bacterial strains E. coli (ATTC 35218) and B. subtilis (ATTC 6633) in cation-adjusted MHB using the microdilution protocols previously described. The sequences, antimicrobial activities, hemolytic activities, and metabolic inhibitory concentrations against NIH 3T3 mouse fibroblast cells are summarized in Table 3 and the rationale of their design is described below.
(§3) Screening antibacterial assays. MICs were determined in 96-well microtiter plates in accordance with CLSI M7-A6 protocols. Peptoid solutions with 50 μL total volume were prepared using 2:1 serial dilutions. 50 i—tL of bacteria inoculum (1×10^6 CFU/mL) prepared in cation-adjusted Mueller-Hinton broth (CAMHB) was added to test wells. Control wells contained 100 μL MHB (no growth) or 50 μL inoculums with 50 μL MHB with no peptoid. […] Reported values were reproducible over three experiments, each containing two parallel trials.
(§4) Antibacterial Assays for Compositions. MICs were determined according to CLSI M7-A6 protocols in a 96-well microtiter plate. In test wells, 50 μL bacterial inoculum (1×10^6 CFU/ml) in cation-adjusted Mueller-Hinton broth (CAMHB) was added to 50 μL peptoid solution in CAMHB (prepared by 1:2 serial dilutions). Positive controls contained 50 μL inoculum and 50 μL CAMHB without peptoid. […] MIC values reported were reproducible between three independent experimental replicates, each consisting of two parallel trials.

[3] = MTS assay, NIH 3T3 cells; type: cell-based, mouse; conditions: mouse, NIH 3T3 fibroblast cells
Procedure: The potencies of all compounds were determined against representative Gram-negative (E. coli ATCC 35218) and Gram-positive (B. subtilis ATCC 6633) biosafety level 1 (BSL1) organisms. In addition to hemolytic activity, the conventional measure of toxicity to mammalian cells, the effect of each ampetoid on NIH 3T3 mouse fibroblast cells was determined using the MTS tetrazolium salt-based colorimetric assay. While hemolysis measures the degree to which erythrocytes are lysed, the MTS assay indirectly quantifies the extent to which cellular metabolic activity is inhibited.
MTS assays. NIH/3T3 cells (ATCC Corporation) cultured at 37° C. and 5% CO2 in complete Dulbecco's modified eagle's media (CDMEM) supplemented with 1% sodium pyruvate, 1% penicillin-streptomycin, 1.5 g/L NaHCO3, and 10% fetal bovine serum. Cells were seeded at a density of 5,000 cells per well for NIH/3T3 cells in 96-well plates (100 μl total volume). A peptoid solution plate (100 μL total volume per well) was prepared by serial dilution of aqueous peptoid stock solution in Hank's balanced salt solution (HBSS) media. The day-old cell monolayers were washed with HBSS and media was replaced with 100 μL HBSS. The contents of the peptoid solution plate were transferred onto corresponding wells of the cell monolayer plate, and 40 μL MTS reagent (Promega, Inc.) was added to each well. After incubating for 3 hours at 37° C., absorbance at 490 nm was determined. […] The average of six replicates is reported.

[4] = test system: B. subtilis ATCC 6633; type: cell-based; conditions: ATCC 6633
Procedure: as §2, §3, §4

| Compound | E. coli MIC [2] | MIC for B. subtilis ATCC 6633 [4] | MIC for E. coli ATCC 35218 [2] | HD10 [1] | CC50 at 3 h [3] | HD50 [1] | HD10 (10% hemolytic dose) ([1]; red cells of human, 1 h) | HD50 (50% hemolytic dose) ([1]; red cells of human, 1 h) |
| --- | --- | --- | --- | --- | --- | --- | --- | --- |
| C[C@H](NCC(=O)N(CCCCN)CC(=O)N(CC(=O)N(CC(=O)N(CCCCN)CC(=O)N(CC(=O)N(CC(=O)N(CCCCN)CC(=O)N(CC(=O)N(CC(=O)N(CCCCN)CC(=O)N(CC(N)=O)[C@@H](C)c1ccccc1)[C@@H](C)c1ccccc1)[C@@H](C)c1ccccc1)[C@@H](C)c1ccccc1)[C@@H](C)c1ccccc1)[C@@H](C)c1ccccc1)[C@@H](C)c1ccccc1)c1ccccc1 [1B, H-(Nspe-Nlys-Nspe)4-NH2] (H-[Nspe][Nlys][Nspe][Nspe][Nlys][Nspe][Nspe][Nlys][Nspe][Nspe][Nlys][Nspe]-NH2) | 6.3 µM |  |  | 55 µM | 4.9 µM |  |  |  |
| C[C@H](NCC(=O)N(CC(=O)N(CCCCN)CC(=O)N(CC(=O)N(CCCCN)CC(=O)N(CC(=O)N(CCCCN)CC(=O)N(CC(=O)N(CC(=O)N(CC(=O)N(CC(=O)N(CCCCN)CC(N)=O)[C@@H](C)c1ccccc1)[C@@H](C)c1ccccc1)[C@@H](C)c1ccccc1)[C@@H](C)c1ccccc1)[C@@H](C)c1ccccc1)[C@@H](C)c1ccccc1)[C@@H](C)c1ccccc1)c1ccccc1 [1scr, H-(Nspe)2-(Nlys-Nspe)3-(Nspe)3-Nlys-NH2] (H-[Nspe][Nspe][Nlys][Nspe][Nlys][Nspe][Nlys][Nspe][Nspe][Nspe][Nspe][Nlys]-NH2) | 6.3 µM |  |  | 64 µM | 8.5 µM |  |  |  |
| C[C@@H](c1ccccc1)N(CC(=O)N(CCCCN)CC(=O)N(CC(=O)N(CC(=O)N(CCCCN)CC(=O)N(CC(=O)N(CC(=O)N(CCCCN)CC(=O)N(CC(=O)N(CC(=O)N(CCCCN)CC(N)=O)[C@@H](C)c1ccccc1)[C@@H](C)c1ccccc1)[C@@H](C)c1ccccc1)[C@@H](C)c1ccccc1)[C@@H](C)c1ccccc1)[C@@H](C)c1ccccc1)C(=O)CN(C(=O)CNCCCCN)[C@@H](C)c1ccccc1 [113 mer, H-(Nlys-Nspe-Nspe)4-Nlys-NH2] (H-[Nlys][Nspe][Nspe][Nlys][Nspe][Nspe][Nlys][Nspe][Nspe][Nlys][Nspe][Nspe][Nlys]-NH2) | 3.1 µM |  |  |  | 5.6 µM |  |  |  |
| C[C@@H](c1ccccc1)N(CC(N)=O)C(=O)CN(CCCCN)C(=O)CN(C(=O)CN(C(=O)CN(CCCCN)C(=O)CN(C(=O)CN(C(=O)CN(CCCCN)C(=O)CN(C(=O)CN(C(=O)CNCCCCN)[C@@H](C)c1ccccc1)[C@@H](C)c1ccccc1)[C@@H](C)c1ccccc1)[C@@H](C)c1ccccc1)[C@@H](C)c1ccccc1)[C@@H](C)c1ccccc1 [111 mer, H-(Nlys-Nspe-Nspe)3-Nlys-Nspe-NH2] (H-[Nlys][Nspe][Nspe][Nlys][Nspe][Nspe][Nlys][Nspe][Nspe][Nlys][Nspe]-NH2) | 6.3 µM |  |  |  | 11 µM |  |  |  |
| C[C@@H](c1ccc2ccccc2c1)N(CC(N)=O)C(=O)CN(C(=O)CN(CCCCN)C(=O)CN(C(=O)CN(C(=O)CN(CCCCN)C(=O)CN(C(=O)CN(C(=O)CN(CCCCN)C(=O)CN(C(=O)CN(C(=O)CNCCCCN)[C@@H](C)c1ccccc1)[C@@H](C)c1ccccc1)[C@@H](C)c1ccccc1)[C@@H](C)c1ccc2ccccc2c1)[C@@H](C)c1ccccc1)[C@@H](C)c1ccccc1)[C@@H](C)c1ccccc1 [1-Nsna6,12, H-(Nlys-Nspe-Nspe-Nlys-Nspe-Nsna)2-NH2] |  | 0.78 to 1.6 µM | 25 to 50 µM | 7 µM |  | 27 µM | 4 µM | 22 µM |
| CC(C)[C@H](C)N(CC(=O)N(CCCCN)CC(=O)N(CC(=O)N(CC(=O)N(CCCCN)CC(=O)N(CC(=O)N(CC(=O)N(CCCCN)CC(=O)N(CC(=O)N(CC(N)=O)[C@@H](C)c1ccccc1)[C@@H](C)c1ccccc1)[C@@H](C)C(C)C)[C@@H](C)C(C)C)[C@@H](C)c1ccccc1)[C@@H](C)c1ccccc1)C(=O)CN(C(=O)CNCCCCN)[C@@H](C)C(C)C [1-Nsdp2,3,8,9, H-(Nlys-Nsdp-Nsdp-Nlys-Nspe-Nspe)2-NH2] (H-[Nlys][X1][X1][Nlys][Nspe][Nspe][Nlys][X1][X1][Nlys][Nspe][Nspe]-NH2) | 12.5 µM |  |  |  | 19 µM |  |  |  |

Now from value to compound, other results behind:

| E. coli MIC [2] | MIC for B. subtilis ATCC 6633 [4] | MIC for E. coli ATCC 35218 [2] | Compound | HD10 [1] | CC50 at 3 h [3] | HD50 [1] | HD10 (10% hemolytic dose) ([1]; red cells of human, 1 h) | HD50 (50% hemolytic dose) ([1]; red cells of human, 1 h) |
| --- | --- | --- | --- | --- | --- | --- | --- | --- |
| 6.3 µM |  |  | C[C@H](NCC(=O)N(CC(=O)N(CCCCN)CC(=O)N(CC(=O)N(CC(=O)N(CCCCN)CC(=O)N(CC(=O)N(CC(=O)N(CCCCN)CC(=O)N(CC(=O)N(CC(=O)N(CCCCN)CC(N)=O)[C@@H](C)c1ccccc1)[C@@H](C)c1ccccc1)[C@@H](C)c1ccccc1)[C@@H](C)c1ccccc1)[C@@H](C)c1ccccc1)[C@@H](C)c1ccccc1)[C@@H](C)c1ccccc1)c1ccccc1 [1C, H-(Nspe-Nspe-Nlys)4-NH2] (H-[Nspe][Nspe][Nlys][Nspe][Nspe][Nlys][Nspe][Nspe][Nlys][Nspe][Nspe][Nlys]-NH2) | 25 µM | 5.6 µM |  |  |  |
| 12.5 µM |  |  | C[C@@H](c1ccccc1)N(CC(=O)N(CCCCN)CC(=O)N(CC(=O)N(CC(=O)N(CCCCN)CC(=O)N(CC(=O)N(CC(=O)N(CCCCN)CC(N)=O)[C@@H](C)c1ccccc1)[C@@H](C)c1ccccc1)[C@@H](C)c1ccccc1)[C@@H](C)c1ccccc1)C(=O)CN(C(=O)CNCCCCN)[C@@H](C)c1ccccc1 [110 mer, H-(Nlys-Nspe-Nspe)3-Nlys-NH2] (H-[Nlys][Nspe][Nspe][Nlys][Nspe][Nspe][Nlys][Nspe][Nspe][Nlys]-NH2) | > 200 µM | 54 µM |  |  |  |
| >100 µM |  |  | C[C@H](NCC(=O)N(CCCCN)CC(=O)N(CC(=O)N(CCCCN)CC(=O)N(CCCCN)CC(=O)N(CCCCN)CC(=O)N(CC(=O)N(CCCCN)CC(=O)N(CC(=O)N(CCCCN)CC(=O)N(CCCCN)CC(=O)N(CC(=O)N(CC(=O)N(CCCCN)CC(=O)N(CC(N)=O)[C@@H](C)c1ccccc1)[C@@H](C)c1ccccc1)[C@@H](C)c1ccccc1)[C@@H](C)c1ccccc1)[C@@H](C)c1ccccc1)[C@@H](C)c1ccccc1)c1ccccc1 [1B15 mer-Nlys4,6,10, H-Nspe-Nlys-Nspe-Nlys-Nlys-Nlys-Nspe-Nlys-Nspe-Nlys-Nlys-Nspe-Nspe-Nlys-Nspe-NH2] (H-[Nspe][Nlys][Nspe][Nlys][Nlys][Nlys][Nspe][Nlys][Nspe][Nlys][Nlys][Nspe][Nspe][Nlys][Nspe]-NH2) |  | 40 µM |  |  |  |
